Measurements from ChEMBL document CHEMBL1201862, “PubChem BioAssay data set” (2004).
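Grown in 96-well plates, cells were treated for 48 hours with each compound at five concentrations. Insufficient inhibition: endpoint recorded as highest concentration tested. Abbreviation: GI50, concentration required for 50% inhibition of growth.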 The source made the active and inactive calls. Rule as the data show it: active = GI50 up to about 1.1 µM and inactive = higher.

Legend:
Experiment in all cases: growth of human tumour cells (NCI), 48 h
786-0 = test system: 786-0
A498 = test system: A498
A549 = test system: A549
ACHN = test system: ACHN
BT-549 = test system: BT-549
CAKI-1 = test system: CAKI-1
CCRF-CEM = test system: CCRF-CEM
COLO 205 = test system: COLO 205
DU-145 = test system: DU-145
EKVX = test system: EKVX
HCC 2998 = test system: HCC 2998
HCT-116 = test system: HCT-116
HCT-15 = test system: HCT-15
HL-60 = test system: HL-60
HOP-62 = test system: HOP-62
HOP-92 = test system: HOP-92
HT-29 = test system: HT-29
Hs-578T = test system: Hs-578T
IGROV-1 = test system: IGROV-1
K562 = test system: K562
KM12 = test system: KM12
LOX IMVI = test system: LOX IMVI
M14 = test system: M14
MCF7 = test system: MCF7
MDA-MB-231 = test system: MDA-MB-231
MDA-MB-435 = test system: MDA-MB-435
MDA-N = test system: MDA-N
MOLT-4 = test system: MOLT-4
Malme-3M = test system: Malme-3M
NCI-H226 = test system: NCI-H226
NCI-H23 = test system: NCI-H23
NCI-H460 = test system: NCI-H460
NCI-H522 = test system: NCI-H522
NCI/ADR-RES = test system: NCI/ADR-RES
OVCAR-3 = test system: OVCAR-3
OVCAR-4 = test system: OVCAR-4
OVCAR-5 = test system: OVCAR-5
OVCAR-8 = test system: OVCAR-8
PC-3 = test system: PC-3
RPMI-8226 = test system: RPMI-8226
RXF 393 = test system: RXF 393
SF-268 = test system: SF-268
SF-295 = test system: SF-295
SF-539 = test system: SF-539
SK-MEL-28 = test system: SK-MEL-28
SK-MEL-2 = test system: SK-MEL-2
SK-MEL-5 = test system: SK-MEL-5
SN12C = test system: SN12C
SNB-19 = test system: SNB-19
SNB-75 = test system: SNB-75
SR = test system: SR
SW-620 = test system: SW-620
T47D = test system: T47D
TK-10 = test system: TK-10
U-251 = test system: U-251
UACC-257 = test system: UACC-257
UACC-62 = test system: UACC-62
UO-31 = test system: UO-31

For `O=C(N/N=C\c1ccccc1)Nc1cccc2ccccc12`, which GI50 (786-0) is on record?
The GI50 was 16.4 µM (inactive).

What about the GI50 (A498) of the same compound?
The GI50 was 25.4 µM (inactive).

What about the GI50 (A549) of the same compound?
Its GI50 is 26.1 µM (inactive).

And the GI50 (ACHN)?
Its GI50 is 18.1 µM (inactive).

And the GI50 (BT-549)?
The GI50 was 31 µM (inactive).

And the GI50 (CAKI-1)?
The GI50 was 35.7 µM (inactive).

What about the GI50 (CCRF-CEM) of the same compound?
Its GI50 is > 100 µM (inactive).

What about the GI50 (COLO 205) of the same compound?
Its GI50 is 48.3 µM (inactive).

And the GI50 (DU-145)?
The GI50 was > 100 µM (inactive).

And the GI50 (EKVX)?
The GI50 was 36.1 µM (inactive).

What about the GI50 (HCC 2998) of the same compound?
The GI50 was 80.2 µM (inactive).

And the GI50 (HCT-116)?
The GI50 was 35.9 µM (inactive).

What about the GI50 (HCT-15) of the same compound?
The GI50 was 74 µM.

What about the GI50 (HL-60) of the same compound?
The GI50 was > 100 µM (inactive).

What about the GI50 (HOP-62) of the same compound?
The GI50 was 18.5 µM (inactive).

What about the GI50 (HOP-92) of the same compound?
Its GI50 is 40.5 µM (inactive).

And the GI50 (HT-29)?
Its GI50 is 24.3 µM (inactive).

And the GI50 (Hs-578T)?
Its GI50 is 22 µM (inactive).

What about the GI50 (IGROV-1) of the same compound?
The GI50 was 24.7 µM (inactive).

And the GI50 (K562)?
The GI50 was > 100 µM (inactive).

What about the GI50 (KM12) of the same compound?
Its GI50 is 33.4 µM (inactive).

What about the GI50 (LOX IMVI) of the same compound?
The GI50 was 44.2 µM (inactive).

And the GI50 (M14)?
Its GI50 is 21.8 µM (inactive).

What about the GI50 (MCF7) of the same compound?
Its GI50 is > 10 µM (inactive).

And the GI50 (MDA-MB-231)?
The GI50 was 91.4 µM (inactive).

And the GI50 (MDA-MB-435)?
The GI50 was 29.9 µM (inactive).

What about the GI50 (MDA-N) of the same compound?
The GI50 was 25.1 µM (inactive).

What about the GI50 (MOLT-4) of the same compound?
The GI50 was > 100 µM (inactive).

What about the GI50 (Malme-3M) of the same compound?
Its GI50 is 28.5 µM (inactive).

And the GI50 (NCI-H226)?
The GI50 was 27.1 µM (inactive).

What about the GI50 (NCI-H23) of the same compound?
The GI50 was > 100 µM (inactive).

And the GI50 (NCI-H460)?
The GI50 was 27.7 µM (inactive).

What about the GI50 (NCI-H522) of the same compound?
Its GI50 is 56.6 µM (inactive).

And the GI50 (NCI/ADR-RES)?
The GI50 was 87.7 µM (inactive).

And the GI50 (OVCAR-3)?
Its GI50 is > 100 µM (inactive).

And the GI50 (OVCAR-4)?
Its GI50 is 33.5 µM (inactive).

And the GI50 (OVCAR-5)?
The GI50 was 60.4 µM (inactive).

What about the GI50 (OVCAR-8) of the same compound?
The GI50 was 27.9 µM (inactive).

And the GI50 (PC-3)?
Its GI50 is 24.4 µM (inactive).

What about the GI50 (RPMI-8226) of the same compound?
The GI50 was > 100 µM (inactive).

What about the GI50 (RXF 393) of the same compound?
The GI50 was 28.1 µM (inactive).

What about the GI50 (SF-268) of the same compound?
Its GI50 is 57 µM (inactive).

And the GI50 (SF-295)?
The GI50 was 32.1 µM (inactive).

And the GI50 (SF-539)?
Its GI50 is 50.4 µM (inactive).

And the GI50 (SK-MEL-28)?
The GI50 was 21.7 µM (inactive).

And the GI50 (SK-MEL-2)?
The GI50 was 26.7 µM (inactive).

And the GI50 (SK-MEL-5)?
Its GI50 is 12.1 µM (inactive).

And the GI50 (SN12C)?
Its GI50 is 20.3 µM (inactive).

And the GI50 (SNB-19)?
Its GI50 is 60.7 µM (inactive).

And the GI50 (SNB-75)?
Its GI50 is 18.7 µM (inactive).

What about the GI50 (SR) of the same compound?
The GI50 was > 100 µM (inactive).

And the GI50 (SW-620)?
The GI50 was 33.8 µM (inactive).

What about the GI50 (T47D) of the same compound?
Its GI50 is 2.98 µM (inactive).

What about the GI50 (TK-10) of the same compound?
Its GI50 is 42.9 µM (inactive).

What about the GI50 (U-251) of the same compound?
Its GI50 is 30.3 µM (inactive).

What about the GI50 (UACC-257) of the same compound?
The GI50 was 78.2 µM (inactive).

What about the GI50 (UACC-62) of the same compound?
Its GI50 is 29.2 µM (inactive).

And the GI50 (UO-31)?
Its GI50 is 40.5 µM (inactive).
